Our source for the IC50 values is ChEMBL document CHEMBL2434900, “Synthesis of novel benzo[4,5]thiazolo[1,2-a]pyrimidine-3-carboxylate derivatives and biological evaluation as potential anticancer agents” (Eur J Med Chem, 2013).

Holding throughout (format): functional, cell-based
One test deals with A549. As to the kind of experiment: Cytotoxicity against human A549 cells by MTT assay. Background: Formazan colour is commonly taken as a measure of viable cells.
For a further test, the system named is MCF7. Put plainly: Cytotoxicity against human MCF7 cells by MTT assay.
The test system of the next test is HeLa. Put plainly: Cytotoxicity against human HeLa cells by MTT assay.
A further test deals with MDA-MB-231. As to the kind of experiment: Cytotoxicity against human MDA-MB-231 cells by MTT assay.

`CC1=C(C(=O)NCCC(=O)N2CCN(c3ccc([N+](=O)[O-])cc3)CC2)C(c2ccccc2)N2C(=N1)Sc1ccccc12` (centres undefined): the concentration for half-maximal inhibition (IC50) in the test on A549 was found to be 11.2 µM; in the test with MCF7 it was 13.8 µM; with HeLa, 25.7 µM.

In the case of `CC1=C(C(=O)N2CCCCC2)C(c2ccccc2)N2C(=N1)Sc1ccccc12` (centres undefined), the half-inhibitory concentration (IC50) in the test with MCF7 turned out to be 11.7 µM; in the test with MDA-MB-231, 5.01 µM.

For `CC1=C(C(=O)N2CCN(C)CC2)C(c2ccccc2)N2C(=N1)Sc1ccccc12` (centres undefined), the half-maximal inhibitory concentration (IC50) was 0.58 µM with MCF7 and 1.58 µM in the test with MDA-MB-231.

As to `CC1=C(C(=O)N2CCOCC2)C(c2ccccc2)N2C(=N1)Sc1ccccc12` (centres undefined), the half-inhibitory concentration (IC50) was determined as 10.1 µM with MCF7 and 11.1 µM with MDA-MB-231.

`CC1=C(C(=O)N2CCN(c3ccccc3)CC2)C(c2ccccc2)N2C(=N1)Sc1ccccc12` (centres undefined): the results for the half-inhibitory concentration (IC50) with MCF7 and in the test on MDA-MB-231 were 77.6 µM and 31.6 µM, respectively.

In the case of `CC1=C(C(=O)N2CCN(c3ccc([N+](=O)[O-])cc3)CC2)C(c2ccccc2)N2C(=N1)Sc1ccccc12` (centres undefined), the values for the IC50 in the test with MCF7 and in the test on MDA-MB-231 were 29 µM and 47.2 µM, respectively.

Regarding `CC1=C(C(=O)NCCC(=O)N2CCCCC2)C(c2ccccc2)N2C(=N1)Sc1ccccc12` (centres undefined), the half-maximal inhibitory concentration (IC50) turned out to be 18.1 µM in the test with A549, 16.8 µM in the test with MCF7, 21.7 µM with MDA-MB-231 and 11.4 µM in the test with HeLa.

`COc1cccc2c1C(=O)c1c(O)c3c(c(O)c1C2=O)C[C@@](O)(C(=O)CO)C[C@@H]3O[C@H]1C[C@H](N)[C@H](O)[C@H](C)O1` [DOXORUBICIN]: the half-inhibitory concentration (IC50) in the test with MCF7 was determined as 1.05 µM; with MDA-MB-231 it was 0.501 µM.

By IC50 is commonly meant the concentration needed to halve the response being measured. A high value points to lower potency.
